Data taken from ChEMBL document CHEMBL5728921, “Pyridylpyridone compounds” (2022).

Molecular target: Phosphatidylinositol 3-kinase catalytic subunit type 3 (Homo sapiens, UniProt Q8NEB9)
Assay: Biochemical Assay: Dilution series of compounds of the invention were prepared in DMSO at 100 times the final assay concentration (n1=n0/3 in 10 points). The compounds were further diluted to 4 times the assay concentration in assay buffer (Life technologies buffer Q, PV5125, diluted 5 times supplemented with 2 mM DTT and 2 mM MnCl2). 2.5 μl of the diluted compounds were added to a 384 well assay plate followed by 2.5 μl of 16.5 nM Vps34 enzyme (Life technologies, PV5126). Enzyme and compounds were pre-incubated at rt for 15 min. Then 5 μl of substrate mix containing 20 μM ATP (Life technologies, PV3227) and 200 μM PI:PS substrate (Life technologies, PV5122) in assay buffer was added to the wells containing compound and enzyme. Mixing was performed by pipetting several times. The reaction was incubated at room temperature for 1 h. Then 5 μl stop-detection mix, prepared as described in the Adapta kinase assay kit instructions (Life technologies, PV5099) containing Adapta Eu-anti-ADP antibody (2.3 nM), Alexa Fluor 647 ADP tracer (9 nM) and EDTA (30 mM) in TR-FRET buffer, was added to quench the reaction. Mixing was performed by pipetting several times. The assay plate was then incubated at room temperature for 30 min and read with Artemis micro plate reader. Percent inhibition of the compounds as compared to DMSO treated control samples was calculated.

Phosphatidylinositol 3-kinase catalytic subunit type 3, sequence (Q8NEB9 whole entry): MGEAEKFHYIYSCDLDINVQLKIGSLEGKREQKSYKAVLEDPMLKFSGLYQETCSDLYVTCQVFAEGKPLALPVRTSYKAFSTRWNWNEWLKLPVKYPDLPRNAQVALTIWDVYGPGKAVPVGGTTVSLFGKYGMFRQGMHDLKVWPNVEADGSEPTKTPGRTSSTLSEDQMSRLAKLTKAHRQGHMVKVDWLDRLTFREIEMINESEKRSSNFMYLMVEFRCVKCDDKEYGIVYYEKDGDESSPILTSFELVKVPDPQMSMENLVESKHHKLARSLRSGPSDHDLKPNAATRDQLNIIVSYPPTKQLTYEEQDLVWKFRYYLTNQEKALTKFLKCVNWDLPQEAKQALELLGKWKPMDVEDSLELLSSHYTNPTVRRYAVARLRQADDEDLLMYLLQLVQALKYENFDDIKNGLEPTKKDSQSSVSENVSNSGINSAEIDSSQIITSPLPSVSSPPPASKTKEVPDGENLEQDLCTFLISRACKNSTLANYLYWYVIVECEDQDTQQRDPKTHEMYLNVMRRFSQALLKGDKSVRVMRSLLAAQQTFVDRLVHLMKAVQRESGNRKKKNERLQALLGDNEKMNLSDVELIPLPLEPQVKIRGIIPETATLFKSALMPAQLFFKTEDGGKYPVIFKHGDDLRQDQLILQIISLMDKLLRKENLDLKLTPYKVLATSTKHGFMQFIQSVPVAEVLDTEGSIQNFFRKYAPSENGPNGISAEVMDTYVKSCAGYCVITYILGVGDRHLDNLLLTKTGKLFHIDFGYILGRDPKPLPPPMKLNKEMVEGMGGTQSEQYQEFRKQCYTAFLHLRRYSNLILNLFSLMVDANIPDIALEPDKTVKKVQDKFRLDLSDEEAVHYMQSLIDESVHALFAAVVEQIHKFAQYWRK

- IC50: < 5 nM
Structure (SMILES): CC(=O)Nc1cc(-c2cc(-c3ccccc3Cl)[nH]c(=O)c2)ccn1
